Experimental data: article PMC7048748, “Anxiolytic Drug FGIN-1-27 Ameliorates Autoimmunity by Metabolic Reprogramming of Pathogenic Th17 Cells” (Scientific Reports, 2020)

What was measured:
[1] = tested on: Th17 cells; experiment: Th17 differentiation assay, intracellular IL-17 by flow cytometry; format: cell-based, mouse
Method: Because of differential TSPO expression in Th17 cells (Fig. S1a) and up-regulation of TSPO in neuroinflammation, we tested whether TSPO ligands, such as FGIN-1-27, can affect Th17 differentiation. In this assay, purified CD4^+ T cells from mouse spleens and lymph nodes were cultured under Th17 polarizing conditions. […] FGIN-1-27 treatment had no effect on protein or transcript levels of RORγt, the Th17 lineage-determining transcription factor.
Figure 1 FGIN-1-27 Inhibits Th17 Differentiation. Naïve CD4 T cells from spleens and lymph nodes of C57BL/6 mice were differentiated under Th17 polarization conditions and were treated with DMSO (control) or FGIN-1-27. (a) Dose response plot showing effect of FGIN-1-27 on intracellular IL-17 and viability on day 4 post activation quantified by flow cytometry. Data is normalized against DMSO (100%). […] (b) Dot plots showing DMSO or FGIN-1-27 treated cells stained for surface CD4, CD44, intracellular IL-17 and intranuclear RORγt. (c) Transcript levels for the indicated genes after 24 hours of treatment with DMSO or FGIN-1-27 quantified by qPCR. Data was normalized to a housekeeping gene, β-actin. Data are representative of at least 3 independent experiments and the error bars indicate standard deviation.
Single cell suspensions were prepared from spleens and lymph nodes of mice by mechanical disruption. Red blood cells were lysed by ammonium chloride followed by CD4^+ T cell purification using either CD4 microbeads (Miltenyi Biotec) or sorting for naïve CD4^+ T cells (FACS Aria). 250,000 cells/well in a 48 well plate were polarized into Th17 cells using Th17 differentiation cocktail: IFNγ, IL-4, IL-12 neutralizing antibodies (10 μg/ml) and 10 ng/ml each of IL-6, IL-1b, IL-21 and TGF-β (0.5 ng/ml). Cells were treated with FGIN-1-27 (Tocris Bioscience) or DMSO at 18 hour and 48 hours post cell plating. On day 4 of culture, cells were re-stimulated with PMA-ionomycin in the presence of brefeldin A. Cells were subsequently stained with viability dye and surface stained for CD44, CD4 followed by permeabilization using cytofix/cytoperm (BD biosciences) and stained for intracellular IL-17. RORγt intranuclear staining was performed after fixation and permeabilization with a Foxp3/Transcription Factor Staining kit (eBioscience). Cells were acquired on BD Fortessa followed by analysis using Flowjo (Tree star Inc).

[2] = tested on: eIF2α; experiment: Western blot for phosphorylated eIF2α; format: cell-based, mouse; details: 24 hours, compared to DMSO controls
Method: (a) MA-plot showing shrunken log2 fold-changes of detected genes between the DMSO and FGIN-1-27 RNA-seq samples, ranked by average normalized count. Red dots indicate differentially expressed genes at adjusted p-value <0.05. (b) Transcript levels for the indicated genes after 24 hours of treatment with DMSO or FGIN-1-27 quantified by qPCR. The error bars represent SD. (c) Western blot analysis for phosphorylated eIF2α and ATF4 24 hours after treatment with DMSO or FGIN-1-27 (5 and 10 µM). Data are representative of 3 independent experiments. (d) Amino acids in Th17 cells measured 72 hours after treatment with FGIN-1-27. The error bars represent SD. (e) ROS was measured using cell permeant reagent 2′,7′ –dichlorofluorescin diacetate (DCFDA) at 24 hours following treatment with FGIN-1-27. Filled grey histogram-DMSO, dotted line-FGIN-1-27 (10 µM) and dashed line indicates FGIN-1-27 (5 µM). […] Data are normalized using DMSO treated cells as 100% and the error bars represent SD.
Cell lysates were prepared by lysis in RIPA buffer containing protease and phosphatase inhibitors and immunoblotting was performed by standard methods.
(a) W estern blot analysis for phosphorylated eIF2α and ATF4 24 hours after treatment
with DMSO or FGIN-1-27 (5 and 10 µM). […]
(a) Indicated sterols were measured in Th17 cells treated with DMSO or FGIN-1-27 for […]

## CCCCCCN(CCCCCC)C(=O)Cc1c(-c2ccc(F)cc2)[nH]c2ccccc12 [FGIN-1-27, N, N-di-n-hexyl 2-(4-fluorophenyl) indole-3-acetamide]
[1]
  protein or transcript levels of RORγt: no effect
[1]; 72 hours post treatment
  proliferation (CFSE dilution): proliferated to the same extent as DMSO treated cells
[1]; Mus musculus, 96 h, day 4 post activation, normalized against DMSO (100%)
  IC50: 4.85 µM
[1]; Th17 polarizing conditions
  viability: without compromising viability
[1]; compared to DMSO treated cultures
  IL-17 producing cells abolished: 85%
[1]; treated cells, Fig. 1b
  CD4 / CD44 dot plot, percent of cells: 98%
  IL-17 / RORγt dot plot, percent of cells: 8.0%
[2]
  increase in eIF2α phosphorylation: 4.5 fold
